Measured values as given in patent publication US11103454B2, “Wax foamable vehicle and pharmaceutical compositions thereof” (VYNE THERAPEUTICS INC., priority 2007, dated 2021).

Text: In one or more embodiments, the foamable composition includes a potent solvent, in addition to or in place of one of the hydrophobic solvents, polar solvents or emollients of the composition. A potent solvent is a solvent other than mineral oil that solubilizes a specific active agent substantially better than a hydrocarbon solvent such as mineral oil or petrolatum.

Structure (SMILES)	Solubility in glycofurol	Solubility in mineral oil	Solubility in dimethyl isosorbide	Solubility in propylene glycol	Solubility in polyethylene glycol 400 (PEG 400)	Solubility in isostearic acid
CCCCC(=O)O[C@]1(C(=O)CO)[C@@H](C)C[C@H]2[C@@H]3CCC4=CC(=O)C=C[C@]4(C)[C@@]3(F)[C@@H](O)C[C@@]21C [Betamethasone valerate]	more than 1%	< 0.01%	–	–	–	–
CCCC(=O)O[C@]1(C(=O)CO)CC[C@H]2[C@@H]3CCC4=CC(=O)CC[C@]4(C)[C@H]3[C@@H](O)C[C@@]21C [Hydrocortisone butyrate]	more than 1%	< 0.01%	–	–	–	–
CC(=O)N1CCN(c2ccc(OCC3COC(Cn4ccnc4)(c4ccc(Cl)cc4Cl)O3)cc2)CC1 (stereo not drawn) [Ketoconazole]	more than 1%	< 0.01%	more than 1%	more than 1%	–	–
Cc1cnc(NC(=O)C2=C(O)c3ccccc3S(=O)(=O)N2C)s1 [Meloxicam]	–	< 0.001%	–	–	–	–
Cc1ncc([N+](=O)[O-])n1CCO [Metronidazole]	–	< 0.01%	more than 1%	–	–	–
C/C(=C\C(=O)OCCCCCCCCC(=O)O)C[C@@H]1OC[C@H](C[C@@H]2O[C@H]2[C@@H](C)[C@H](C)O)[C@@H](O)[C@H]1O [Mupirocin]	more than 1%	< 0.01%	more than 1%	more than 1%	more than 1%	–
CC(=O)[C@H]1CC[C@H]2[C@@H]3CCC4=CC(=O)CC[C@]4(C)[C@H]3CC[C@]12C [Progesterone]	–	< 0.001%	–	–	–	–
CC(C)Cn1cnc2c(N)nc3ccccc3c21 [imiquimod, 4-Amino-1-isobutyl-1H-imidazo[4,5-c] quinoline]	–	–	–	–	–	soluble
